Measurements taken from patent US9676715B2, “Bis-indolic derivatives, a process for preparing the same and their uses as a drug” (UNIVERSITE JOSEPH FOURIER, priority 2011, dated 2017).
In brackets after ≈: the same amount, converted by molar mass.

What was measured:
S. aureus ATCC 25923 = assay: Concentration-killing curves; format: cell-based, Staphylococcus aureus; details: concentrations up to 128 mg/L, after 18 h of incubation
Description: FIGS. 1A and 1B present concentration-killing curves for the indolic compounds 3f and 4 against S. aureus ATCC 25923. The activity is evaluated after 18 h incubation of S. aureus cultures in the presence of the tested compound.
The area between the horizontal full line and the dashed line corresponds to a bacteriostatic effect and the area below the dashed line corresponds to a bactericidal effect (i.e., ≧3 log reduction of the primary bacterial inoculum after 18 h incubation of cultures in the presence of the tested compound).
The method described by Motyl et al. [M. Motyl, K. Dorso, J. Barrett, R. Giacobbe, Basic Microbiological Techniques Used in Antibacterial Drug Discovery. Current Protocols in Pharmacology. UNIT 13A.3. January, 2006] was used.
Killing curves corresponded to the measure of the kinetic of bactericidal activity of indolic compounds over time (time-kill curves) or after 18 h incubation of cultures according to different drug concentrations (concentration-killing curves). […] Bacterial inocula are determined in each tube using the CFU count method at the beginning of the experiments, and then after 18 h for concentration-killing curves, or after 1 h, 2 h, 4 h, 8 h and 18 h for time-kill curves. […]

[1] = test system: Staphylococcus haemolyticus (CHUG-Shae1); assay: MIC, Staphylococcus panel (9.2); format: cell-based; details: S. haemolyticus CHUG-Shae1, 4% DMSO, 18 h
Description: (§1) The microdilution method recommended by the Clinical and Laboratory Standard Institute [M07-A9, Vol. 32, N° 2] was used. The activity of bis-indolic compounds 3f and 4 was tested against 35 Staphylococcus bacterial strains corresponding to 12 different species,
(§2) Bacterial inocula were prepared in Mueller Hinton broth (MH2, BioMérieux, Marcy L'Etoile, France). They were dispensed in 96 well microtiter plates (5×10^5 CFU/ml of final inoculum, 192 μL per well). Indolic compounds diluted in pure DMSO (8 μL per well, concentrated 25 times) were added to the wells as to obtain two-fold serial concentrations (0.5-32 mg/L of final concentrations). The final concentration of DMSO was 4% in each well.
(§3) To avoid cross-contaminations in microtiter plates, one row was left blank between each strain tested. Microplates were incubated for 18 h at 37° C. in ambient air. Then MICs were read visually and, in case of visual reading difficulties, confirmed using a spectrophotometer at a wavelength of 630 nm (BioTek® EL808 Absorbance Microplate Reader). MICs corresponded to the minimum bis-indolic compound concentration that allowed complete visual growth inhibition of bacteria. Drug-free cultures served as growth controls.
(§4) Coagulase-negative Staphylococcus strains included three reference strains purchased from CRBIP: a methicillin-susceptible S. epidermidis strain (ATCC 12228), a methicillin-resistant S. epidermidis strain (ATCC 49461), and a methicillin-susceptible S. sciuri strain (ATCC 29061). We also used clinical strains belonging to the following coagulase-negative Staphylococcus species: S. auricularis (two strains), S. warneri (five strains), S. capitis (five strains), S. haemolyticus (four strains), S. hominis (seven strains), S. cohnii (two strains), and S. saprophyticus, S. caprae and S. simulans (one strain each). Identification of the clinical strains was obtained using VITEK® 2 System (Biomérieux). The specified strain numbers correspond to an internal number of the bacterial strain collection of our laboratory.

[2] = test system: Staphylococcus sciuri ATCC 29061; assay: MIC, Staphylococcus panel (9.2); format: cell-based; details: Mammaliicoccus sciuri, ATCC29061; S. sciuri ATCC 29061; 4% DMSO, 18 h
Description: as §1, §2, §3, §4

[3] = test system: Staphylococcus warneri (CHUG-Swar1); assay: MIC, Staphylococcus panel (9.2); format: cell-based; details: S. warneri CHUG-Swar1, 4% DMSO, 18 h
Description: as §1, §2, §3, §4

[4] = test system: Staphylococcus hominis (CHUG-Shom1); assay: MIC, Staphylococcus panel (9.2); format: cell-based; details: S. hominis CHUG-Shom1, 4% DMSO, 18 h
Description: as §1, §2, §3, §4

[5] = test system: Staphylococcus auricularis (CHUG-Saur1); assay: MIC, Staphylococcus panel (9.2); format: cell-based; details: S. auricularis CHUG-Saur1, 4% DMSO, 18 h
Description: as §1, §2, §3, §4

[6] = test system: Staphylococcus epidermidis ATCC 49461; assay: MIC, Staphylococcus panel (9.2); format: cell-based; details: ATCC49461, S. epidermidis ATCC 49461, 4% DMSO, 18 h
Description: as §1, §2, §3, §4

[7] = test system: Staphylococcus capitis (CHUG-Scap1); assay: MIC, Staphylococcus panel (9.2); format: cell-based; details: S. capitis CHUG-Scap1, 4% DMSO, 18 h
Description: as §1, §2, §3, §4

[8] = test system: Staphylococcus epidermidis ATCC 12228; assay: MIC, Staphylococcus panel (9.2); format: cell-based; details: ATCC12228, S. epidermidis ATCC 12228, 4% DMSO, 18 h
Description: as §1, §2, §3, §4

[9] = test system: Staphylococcus aureus K2378 (overexpresses the efflux pump NorA from a multicopy plasmid); assay: Efflux pump inhibition assay with sub-inhibitory ciprofloxacin; format: cell-based; details: S. aureus K2378; in the presence of ciprofloxacin 0.5 mg/L
Description: The efflux pump inhibition potential of the bis-indolic derivatives was tested using two steps.
The following experimental protocol was used: indolic derivatives (initially solubilised in DMSO at 10 mg/mL) were dispensed in a 96-wells microplate by two fold serial dilutions in Muller-Hinton medium (MH, Bio Rad) using a Biomek 2000 (Beckman) handling robot. 100 μL of the bacterial inoculum (an overnight culture at 37° C. in 5 mL MH diluted 100-fold) was then added in each well. The total volume was 200 μL in each well and the final bacteria concentration 10^6 CFU/mL (CFU: colony forming unit). The highest final indolic derivative concentration was 128 mg/L. Growth was assayed with a microplate reader by monitoring absorption at 620 nm after 1, 2, 5, 7 and 24 h incubation at 37° C. In addition, the plates were read visually after 24 hours incubation. Cultures containing 5 μL DMSO were used as growth controls. In addition, two controls containing a sub-inhibitory or a inhibitory antibiotic concentration for the tested strain were performed. The antibiotics used were ampicillin (0.5 and 32 μg/mL) for E. coli, kanamycin (0.5 and 16 μg/mL) for S. aureus ATCC 25923, ciprofloxacin (4 and 64 mg/L) for S. aureus 1199B, ciprofloxacin (0.5 and 2 mg/L) for S. aureus K2378. All experiments were performed in duplicate.
Efflux pump inhibition assays were then performed against resistant Staphylococcus aureus strains SA 1199B and SA K2378 for bis-indolic derivatives. […] The minimal inhibitory concentration (MIC) of the bis-indolic compound allowing a complete inhibition of the bacterial growth in the presence of ciprofloxacin was determined.

| SMILES | bactericidal activity (concentration-killing curve) (S. aureus ATCC 25923) | MIC [1] [µg/mL] | MIC [2] [µg/mL] | MIC [3] [µg/mL] | MIC [4] [µg/mL] | MIC [5] [µg/mL] | MIC [6] [µg/mL] | MIC [7] [µg/mL] | MIC [8] [µg/mL] | MIC, mg/L (Ciprofloxacin concentration, mg/L) [9] |
| --- | --- | --- | --- | --- | --- | --- | --- | --- | --- | --- |
| CC(C)(C)OC(=O)NCC(NC(=O)c1c[nH]c2ccc(Br)cc12)c1c[nH]c2ccc(Br)cc12 (stereo not shown) [Compound 3f, tert-Butyl(2-(5-bromo-1H-indol-3-yl)-2-(5-bromo-1H-indolyl-3-carboxamido)ethyl)carbamate] | no detectable bactericidal activity | 4 (≈ 6.94 µM) | 4 (≈ 6.94 µM) | 2 (≈ 3.47 µM) | 4 (≈ 6.94 µM) | 2 (≈ 3.47 µM) | 2 (≈ 3.47 µM) | 4 (≈ 6.94 µM) | 2 (≈ 3.47 µM) | – |
| CC(NC(=O)c1c[nH]c2ccc(Br)cc12)c1c[nH]c2ccc(Br)cc12 (stereo not shown) [Compound 4, 5-Bromo-N-(1-(5-bromo-1H-indol-3-yl)ethyl)-1H-indole-3-carboxamide] | no detectable bactericidal activity | 2 (≈ 4.34 µM) | 2 (≈ 4.34 µM) | 1 (≈ 2.17 µM) | 1 (≈ 2.17 µM) | 1 (≈ 2.17 µM) | 1 (≈ 2.17 µM) | 2 (≈ 4.34 µM) | 1 (≈ 2.17 µM) | – |
| Cn1cc(C(=O)NC(CNC(=O)OC(C)(C)C)c2c[nH]c3ccc(Br)cc23)c2cc(Br)ccc21 (stereo not shown) [Compound 7, tert-Butyl (2-(5-bromo-1-methyl-1H-indole-3-carboxamido)-2-(5-bromo-1H-indol-3-yl)ethyl) carbamate] | – | – | – | – | – | – | – | – | – | 0.125 (0.5) mg/L |
